From patent US20100316628A1, “AGENTS AND METHODS FOR TREATING RESPIRATORY DISORDERS” (THE GENERAL HOSPITAL CORPORATION, priority 2008, published 2010)
Entries after “also recorded” stand apart in the source; their conditions may differ.

Columns and labels:
proximal VD = test: Detection of proton secretion in cut-open proximal VD with a self-referencing proton-selective electrode; design: species or system rat; conditions: for proton secretion (effect of the added agent): ANGII 1 μM added to the bath, then concanamycin A 1 μM
Method: The proximal VD was cut open to expose the apical surface of the epithelium and anchored onto a custom-made chamber. Proton secretion was measured using a self-referencing proton-selective electrode, as described previously (Beaulieu et al., 2005; Breton et al., 1996; Smith et al., 2007).

clear cells [1] = test: In vivo luminal microperfusion of cauda epididymidis; quantification of V-ATPase apical membrane accumulation / microvilli elongation in clear cells; design: species or system rat; conditions: for extension of V-ATPase-labeled microvilli versus control: mean±SEM; for effect on ANGII-induced V-ATPase apical accumulation and microvilli elongation: 10 min pre-treatment, then ANGII 20 min with agent present, PD123319 1 μM, losartan 1 μM, ODQ 3 μM, L-NAME 100 μM
Method: (§1) Rats were anesthetized and the cauda epididymidis was luminally perfused in vivo, harvested and fixed in PLP, as described previously (Beaulieu et al., 2005; Pastor-Soler et al., 2003; Wong and Yeung, 1978).
Immunofluorescence labeling was performed on cryostat sections, as described previously (Beaulieu et al., 2005; Pastor-Soler et al., 2003). Primary antibodies, the AGTR2 peptide and secondary antibodies used are listed in supplementary material. Slides were mounted in Vectashield (Vector Labs, Burlingame, Calif.) with or without DAPI. For confocal microscopy, nuclei were stained using TOPRO-3 iodide (Invitrogen, Carlsbad, Calif.). Immunostained sections were examined using a Nikon E800 microscope (Nikon Instruments, Melville, N.Y.). Digital images were acquired with IPLab Spectrum software (Scanalytics, Fairfax, Va.) and imported into Adobe Photoshop. Sections were also examined using a […] confocal microscope (Zeiss Laboratories). Z-series (0.1-μm interval) were imported into Volocity software (Improvision Inc., version 4.1) for 3D reconstruction and final animations were exported as Quicktime movies.
The level of accumulation of V-ATPase in clear cell microvilli was quantified using IPLab software as described previously (Beaulieu et al., 2005; Pastor-Soler et al., 2003). 10 μm sections of microperfused cauda epididymidis were immunostained under identical conditions, and confocal images were acquired using the same parameters. The segmentation procedure of IPLab was used to measure the area of V-ATPase-positive microvilli, which was normalized against the length of apical pole of each cell (Beaulieu et al., 2005; Pastor-Soler et al., 2003). At least three epididymides from different animals were perfused for each condition, and a minimum of 10 cells/tissue were examined for a total of at least 30 cells/condition.

clear cells [2] = test: Immunogold electron microscopy and quantification of V-ATPase gold labeling in clear cells of perfused epididymis; type: in vivo, rat; conditions: luminal ANGII 1 μM vs control
Method: as §1
Pieces of PLP-fixed epididymis were embedded at −45° C. using HM20 resin (Electron Microscopy Sciences, Hatfield, Pa.) in a Leica EM AFS, and ultrathin sections were cut, as described previously (Da Silva et al., 2007; Pastor-Soler et al., 2003). Sections were immunostained for the V-ATPase A subunit, followed by goat anti-rabbit IgG coupled to 15 nm gold (Ted Pella, Reading, Calif.). Grids were examined in a JEOL 1011 electron microscope. Images were acquired using an AMT digital imaging system.
The number of V-ATPase associated gold particles on the apical membrane and microvilli was counted for each clear cell (Da Silva et al., 2007; Pastor-Soler et al., 2003). To determine the density of V-ATPase molecules along the apical membrane, the number of gold particles was divided by the length of apical membrane, including microvilli, of each cell. This value is referred to as “gold/μm apical membrane”. To determine the relative density of the V-ATPase at the cell surface, the number of gold particles was normalized for the width of the cell, measured at the base of the microvilli (gold/μm cell width).

In the case of C/C=C/[C@H]1O[C@@](O)([C@@H](C)[C@H](O)[C@H](C)[C@H]2OC(=O)/C(OC)=C/C(C)=C/[C@@H](C)[C@@H](O)[C@@H](CC)[C@@H](O)[C@H](C)C/C(C)=C/C=C/[C@@H]2OC)C[C@@H](O[C@H]2C[C@@H](O)[C@H](OC(N)=O)[C@@H](C)O2)[C@@H]1C [concanamycin A], the “proton secretion (effect of the added agent)” value (proximal VD) was “markedly inhibited; also recorded: marked inhibition” and the “effect of pre-incubation on the proton secretion response to ANGII” value (proximal VD; pre-incubation of the tissue for 10 min, data not shown) was “prevented the response to ANGII”.
For Nc1nc2c(nc(Sc3ccc(Cl)cc3)n2[C@@H]2O[C@@H]3COP(=O)(O)O[C@H]3[C@H]2O)c(=O)[nH]1 [p-cpt-cGMP], the “elongation of V-ATPase-rich microvilli compared to control” value (clear cells [1]; 1 mM in luminal perfusate, 20 min) was “significant elongation; also recorded: marked elongation”.
“angiotensin II (DRVYIHPF; Angiotensin-2; UniProt P01019 25-32, looked up) [ANGII, peptide hormone; agonist of AGTR1 and AGTR2 receptors]” was tested, and the “V-ATPase-labeled microvilli seen by immunogold labeling” value (clear cells [2]) was “longer and more numerous V-ATPase-labeled microvilli are detected”, the “density of V-ATPase molecules in microvilli (Gold/μm apical membrane)” value (clear cells [2]; P<0.0005) was “significant increase” and the “total number of V-ATPase molecules located at the cell surface (Gold/μm cell width)” value (clear cells [2]; P<0.0005) was “further amplified compared to control”. The “proton secretion (effect of the added agent)” value (proximal VD) was “sustained increase in proton secretion”, the “increase of concanamycin-sensitive proton secretion compared to control” value (proximal VD; ANGII 1 μM, measured 30 min after addition, n=7, P<0.05) was 68% and the “extension of V-ATPase-labeled microvilli versus control” value (clear cells [1]; ANGII 0.1 μM in luminal perfusate, 20 min) was 141±4%. For the same molecule, the “extension of V-ATPase-labeled microvilli versus control” value (clear cells [1]; ANGII 1 μM in luminal perfusate, 20 min) was 153±7%.
O=c1onc2cnc3ccccc3n12 [ODQ] was tested, and the “effect on ANGII-induced V-ATPase apical accumulation and microvilli elongation” value (clear cells [1]) was “completely abolished”.
With Cc1cc(Cn2cnc3c2C[C@@H](C(=O)O)N(C(=O)C(c2ccccc2)c2ccccc2)C3)ccc1N(C)C [PD123319] the “effect on ANGII-induced V-ATPase apical accumulation and microvilli elongation” value (clear cells [1]) was “prevented the stimulatory effect of ANGII; also recorded: inhibited the effect of ANGII at both 0.1 and 1 μM concentrations”.
In the case of CCCCc1nc(Cl)c(CO)n1Cc1ccc(-c2ccccc2-c2nn[nH]n2)cc1 [Losartan], the “effect on ANGII-induced V-ATPase apical accumulation and microvilli elongation” value (clear cells [1]) was “no inhibitory effect”.
